These results are taken from US7432400B2, “Biphenylene compounds” (Ciba Specialty Chemicals Corp., priority 2001, dated 2008).

Values joined by “and” are separate entries in the source; they are usually repeats but may differ in a detail not shown here. Equal entries are not always repeated.

The first data set in a line: UV absorption (λmax) of the biphenyl compounds as UV filters. Type of data set: physicochemical. Particulars: measured in acetonitrile 98/water 2. The text has this: By way of example, the following Table lists a number of biphenyl compounds according to the invention together with their λmax values (measured in acetonitrile 98/water 2).
Regarding `CC(C)(C)C1CCC(=O)/C(=C/c2ccc(-c3ccc(/C=C4\CC(C(C)(C)C)CCC4=O)cc3)cc2)C1` (centres unmarked) [Example 1], the “λmax [nm]” value came to 357 nm.
Take `O=C1/C(=C/c2ccc(-c3ccc(/C=C4\CCc5ccccc5C4=O)cc3)cc2)CCc2ccccc21` [Example 2]: the “λmax [nm]” value came out at 351 nm.
With `COc1ccc2c(c1)CC/C(=C\c1ccc(-c3ccc(/C=C4\CCc5cc(OC)ccc5C4=O)cc3)cc1)C2=O` [Example 3], the “λmax [nm]” value was 351 nm.
Still for that read-out and setting: with `CCCCCCC1CC/C(=C\c2ccc(-c3ccc(/C=C4\CCC(CCCCCC)C4=O)cc3)cc2)C1=O` (centres unmarked) [Example 4] the figure was 282 nm; with `O=C(/C=C/c1ccc(-c2ccc(/C=C/C(=O)c3ccc(F)cc3)cc2)cc1)c1ccc(F)cc1` [Example 5], 358 nm.
As for `O=C1CCCCC/C1=C\c1ccc(-c2ccc(/C=C3\CCCCCC3=O)cc2)cc1` [Example 6], the “λmax [nm]” value was determined as 337 nm.
Regarding `O=C1CCCCCC/C1=C\c1ccc(-c2ccc(/C=C3\CCCCCCC3=O)cc2)cc1` [Example 7], the “λmax [nm]” value is listed as 315 nm.
For the compound `C/C(=C\c1ccc(-c2ccc(/C=C(\C)C(=O)c3ccccc3)cc2)cc1)C(=O)c1ccccc1` [Example 8], the “λmax [nm]” value worked out at 326 nm.
For the compound `O=C(/C(=C/c1ccc(-c2ccc(/C=C(/C(=O)c3ccccc3)c3ccccc3)cc2)cc1)c1ccccc1)c1ccccc1` [Example 9], the “λmax [nm]” value was 326 nm.
As for `O=C1OCCCC/C1=C\c1ccc(-c2ccc(/C=C3\CCCCOC3=O)cc2)cc1` [Example 10], the “λmax [nm]” value is on record as 361 nm.
For `CC(=O)/C(=C\c1ccc(-c2ccc(/C=C(\C(C)=O)C(=O)OC(C)(C)C)cc2)cc1)C(=O)OC(C)(C)C` [Example 11], the “λmax [nm]” value was determined as 345 nm.

Experiment in the next data set: as above
Type of data set: physicochemical. The settings on record: in DMSO.
On to `O=C1NC(=O)C(=Cc2ccc(-c3ccc(C=C4C(=O)NC(=O)NC4=O)cc3)cc2)C(=O)N1` [Example 15], for which the “λmax (DMSO)” value is on record as 396 nm.

Still in this data set, the particulars now being: in DMSO, at λmax 396 nm.
Consider `O=C1NC(=O)C(=Cc2ccc(-c3ccc(C=C4C(=O)NC(=O)NC4=O)cc3)cc2)C(=O)N1` [Example 15], for which the “E (1%, 1 cm)” value is 1134.

Staying with this data set, now noted: in dioxane.
For `O=C1/C(=C/c2ccc(-c3ccc(/C=C4/C(=O)C5CCN4CC5)cc3)cc2)N2CCC1CC2` [Example 13], the “λmax (dioxane)” value is 235 nm and 350 nm.
